Assay results published in paper PMC7504639, “Fluorescence Lifetime and Intensity of Thioflavin T as Reporters of Different Fibrillation Stages: Insights Obtained from Fluorescence Up-Conversion and Particle Size Distribution Measurements” (International Journal of Molecular Sciences, 2020).
Counter-ions that a name gives are not always drawn.

Molecular target: T1, Human recombinant insulin (Ins); protofibrils / mature fibrils (Homo sapiens, UniProt P01308)
T1 construct: mature two-chain insulin (cut from proinsulin), recombinant, PanEco; aggregated to amyloid fibrils at pH 2, 62 °C; not the native monomer
T1 sequence (P01308 25-54): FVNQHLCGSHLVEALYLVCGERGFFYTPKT
T1 sequence (P01308 90-110): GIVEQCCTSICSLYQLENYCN
Experiment: fluorescence-mode nanoparticle tracking (fibril staining)
Type: binding
Conditions: mature amyloid fibrils, not native insulin

**Q.** `CC[n+]1c(/C=C/c2c(C)cc(N(C)C)cc2C)sc2ccccc21` [2M-DMASEBT, trans2-(′-(dimethylamino)-2,6-dimethylstyryl)-3-ethyl-1,3-benzothiazole tosylate] was tested. Which “fluorescence-mode nanoparticle tracking (fibril staining)” value did it give?
**A.** Fibrils were stained using the ThT derivative 2M-DMASEBT
